{"source": "patent US9636307B2", "about": "“Oral pharmaceutical composition comprising taste-masked N-acetylcysteine” (HERMES ARZNEIMITTEL GMBH, priority 2013, dated 2017)", "key": {"[1]": {"assay": "Stability testing of N-acetylcysteine by headspace gas chromatography", "assay_type": "physicochemical"}, "[2]": {"assay": "Decomposition during processing of the material (sulphurous smell)", "assay_type": "physicochemical", "conditions": "between about 40 and 48° C. compared to working at above 50° C.; evident by reduced sulphurous smell"}}}
{"smiles": "CC(=O)N[C@@H](CS)C(=O)O", "note": "[N-acetylcysteine, N-acetyl-L-cysteine]", "values": [{"measurement": "sulphur species detectable by headspace gas chromatography", "setting": "[1]; sample subjected to 60° C. for 2 hours", "value": "two sulphurous species, acetyl mercaptane and s-ethyl ethanthioate, were detected"}, {"measurement": "sulphur species detectable by headspace gas chromatography", "setting": "[1]; sample treated at 40° C. for 2 hours", "value": "no sulphur species are detectable"}, {"measurement": "decomposition of N-acetylcysteine", "setting": "[2]", "value": "notably suppressed"}]}
